Data on ten compounds can be found in PMC12085399, “Quantitative in vitro-to-in vivo extrapolation of human adrenergic and trace amine-associated receptor 1 potencies of pre-workout supplement ingredients using physiologically based kinetic modelling-based reverse dosimetry” (Archives of Toxicology, 2025).

Series [1] has as its system ADRα1D. Put plainly: PBK modelling-based reverse dosimetry of in vitro EC50 to ED50, ADRα1D. Particulars: predicted human oral ED50 from in vitro EC50 (Pinckaers et al. [2024]) and modelled Cmax plasma venous. An excerpt:
(§1) The in vitro effect concentrations (EC50), for activation of the α1A, α1B, α1D, α2A, α2B, β1 and β2 ADR activation and the activation of TAAR1, were obtained from our previous study (Pinckaers et al. [2024]).

In series [2] the test system is ADRα1B. In words: PBK modelling-based reverse dosimetry of in vitro EC50 to ED50, ADRα1B. Particulars: predicted human oral ED50 from in vitro EC50 (Pinckaers et al. [2024]) and modelled Cmax plasma venous.
Text: as §1

The nature of series [3]: In vitro hepatic clearance by human liver S9 (compound depletion). In kind it is in vitro ADME. To be noted: for Predicted intrinsic hepatic metabolic clearance CLmet: CLint,u scaled to a whole liver, 121 mg HLS9/g liver; for Predicted intrinsic hepatic metabolic clearance CLmet / k el at 1 µM / microsomal CLint at 1 µM: human; for metabolism in incubations without co-factor mix: HLS9 without co-factor mix; for k el at 1 µM: pH 7.4. The protocol: In vitro intrinsic hepatic clearance (CLint) values of the phenethylamine analogues were determined in experiments with pooled human liver S9 (HLS9; Corning, Woburn, MA, USA and Gibco, USA), by measuring the rate of compound depletion. Stocks of 1 mM PEA compounds were prepared in DMSO and stocks of 10 mg/mL alamethicin were prepared in methanol. The final incubation mixtures consisted of 1 µM of PEA compound (0.1% DMSO) in 100 mM potassium phosphate buffer with 5 mM magnesium chloride (pH 7.4) supplemented with 0.025 mg/mL alamethicin (0.25% methanol) and 0.1–2 mg/mL HLS9. […] Incubation mixtures were first pre-incubated at 37 °C in a shaking incubator at 300 rpm for 5 min. After 5 min, the reaction was initiated by adding a co-factor mix in supplemented buffer with final concentrations of 3 mM nicotinamide adenine dinucleotide phosphate (NADPH; for oxidation, reduction and hydrolysis), 5 mM uridine diphosphate glucuronic acid (UDPGA; for glucuronidation), 0.2 mM adenosine 3’-phosphate 5’-phosphosulfate lithium salt hydrate (PAPS; for sulfation) and 0.2 mM S-(5’-Adenosyl)-L-methionine p-toluenesulfonate salt (SAM; for methylation). The final incubation volume was 100 µL and incubations were performed in 1.5 mL Safe-Lock Eppendorf tubes (Eppendorf) in a shaking incubator (300 rpm) at 37 °C (Eppendorf Thermomixer). Incubations were terminated by adding 100 µL ice-cold acetonitrile after, 0, 2.5, 5, 10, 20, 40 and 60 min. Then, samples were vortexed, put on ice and stored at -20 °C until the day of the LC–MS/MS analysis. Controls of incubation mixtures without HLS9 or mixtures without co-factors were also included. Two independent experiments, both in duplicate, were performed on different days. On the day of the LC–MS/MS analysis, samples were thawed and centrifuged at 15,000 rpm for 10 min. The supernatant was collected in glass insert vials for LC injection (BGB Analytik, Harderwijk, The Netherlands). Details on the methods of the LC–MS/MS analysis are described in Sect. "LC–MS/MS analysis". After determining the PEA (analogue) amount at the different time points, the CLint was calculated. The natural logarithm of compound concentrations was plotted against time and the slope of this curve represented the elimination rate constant k (in 1/min). The half-life (t1/2 in minutes) was calculated by: ln (2)/k (in 1/min). The volume of incubation (V) in µL/mg protein was determined by: 1000 / HLS9 concentration (in mg/mL). Finally, CLint could be calculated by: CLintμL/min/mg protein=VμL/mg protein∗ln2/t1/2min.
The fraction unbound in these in vitro liver clearance incubations was calculated with the method of (Hallifax and Houston [2006]) in which unspecific binding in HLS9 incubations was assumed to be the same as in liver microsomal incubations. The in vitro obtained HLS9 CLint values were corrected for protein binding in the HLS9 incubation and were scaled to a whole liver by using a scaling factor of 121 mg HLS9/g liver (Houston and Galetin [2008]).

The conditions of series [4]: human, t = 0.70 h, escalating intravenous infusion 0.5, 1, 2, 4 µg/kg bw/min, 3 min each; ref Feng et al. [2012]; cited from earlier work.
For series [5], the system named is ADRβ1. Further details: method as in Pinckaers et al. [2024]. Particulars: in vitro ADRβ1 activation assays, Fig. 6E; ref Pinckaers et al. [2024]; cited from earlier work.
Series [6] in a line: Generic human PBK model with oral dosing, simulated venous plasma concentration. Particulars: oral dose of 5.7 mg/kg bw, observed data of Rafehi et al. [2019]. The source says: The PBK model codes used in this study are presented in the Supplementary data. For the prediction of internal concentrations of the PEA analogues a generic PBK model for humans with oral dosing was used. The PBK model code was adopted from (Jones and Rowland-Yeo [2013]). In general, the body compartments described in the model are: adipose, bone, brain, gut, heart, kidney, liver, lung, muscle, skin, spleen, testes, venous, arterial, plasma and a rest compartment. The concentrations in these compartments were modelled as blood-flow limited, in which it is assumed that the total concentration in the tissue is in equilibrium with the concentration in the systemic circulation at a steady state. The concentration in the circulation is compound-specific and is based on the plasma partition coefficients. The blood flow rate, the tissue volume and the plasma partition coefficients determine the rate of reaching the steady-state (Jones and Rowland-Yeo [2013]). The model was converted to RStudio (version 2023.12.1 Build 402, “Ocean Storm Release”) solving the differential equations with the R rxode2 package (with tidyverse packages). Cliver free was defined as Cliver/Kp liver * Fup instead of Cliver* Fup. […]

The conditions of series [7]: human; ref Faraj et al. [1979]; cited from earlier work.
The mark [8] stands for this setting: full reaction mix (HLS9 and co-factor mix), 1 µM, HLS9 concentration per compound (0.10-2 mg/mL), read-out: elimination rate constant k (converted).
The mark [9] stands for this setting: s9, pH 7.4, CLint app corrected for unspecific protein (HLS9) binding, read-out: In vitro CLint,u.
[10] abbreviates: s9, pH 7.4, human liver S9 with co-factor mix (NADPH, UDPGA, PAPS, SAM), 1 µM, read-out: In vitro CLint app.

Like-named read-outs stand apart in the source and are kept apart here.

As to `CN(C)CCc1ccccc1` [Dimethylphenethylamine, N,N-dimethylphenethylamine], in series [1], the “ADRα1D ED50” value is recorded as 5.60 mg/kg bw. Further, the “ADRα1B ED50” value in series [2] is 4.07 mg/kg bw. In addition, in series [3], the “Predicted intrinsic hepatic metabolic clearance CLmet” value was 245 L/h and the “metabolism in incubations without co-factor mix” value is “metabolized in incubations without co-factor mix”. In series [3] (setting [8]), the k el at 1 µM was 0.000667 s⁻¹. Besides, the microsomal CLint at 1 µM in series [3] (setting [9]) was found to be 23 µL/min/mg. Besides, the microsomal CLint at 1 µM in series [3] (setting [10]) came out at 20 µL/min/mg.

Take `CNCC(O)c1ccccc1` (stereo not shown) [Halostachine, halostachine]: the “ADRα1D ED50” value in series [1] is on record as 2.52 mg/kg bw. Moreover, in series [2], the “ADRα1B ED50” value is listed as 1.32 mg/kg bw. In addition, in series [3], the “Predicted intrinsic hepatic metabolic clearance CLmet” value was 416 L/h and the “metabolism in incubations without co-factor mix” value is “metabolized in incubations without co-factor mix”. Besides, the k el at 1 µM in series [3] (setting [8]) is 0.000312 s⁻¹. In series [3] (setting [9]), the microsomal CLint at 1 µM is 39 µL/min/mg. In addition, the microsomal CLint at 1 µM in series [3] (setting [10]) was determined as 37.4 µL/min/mg.

For `Oc1ccc(CC2NCCc3cc(O)c(O)cc32)cc1` (stereo not shown) [Higenamine, higenamine], the “ADRα1D ED50” value in series [1] was “– (compounds with a dash (-) did not activate the receptors in vitro at concentrations ≤ 300 µM)”. Further, in series [2], the “ADRα1B ED50” value is “– (compounds with a dash (-) did not activate the receptors in vitro at concentrations ≤ 300 µM)”. Moreover, the “Predicted intrinsic hepatic metabolic clearance CLmet” value in series [3] is 261 L/h. Further, the k el at 1 µM in series [3] (setting [8]) was 0.000367 s⁻¹. The microsomal CLint at 1 µM turned out to be 24.4 µL/min/mg in series [3] (setting [9]) and 22 µL/min/mg in series [3] (setting [10]). Besides, the “observed average plasma concentration” value in series [4] is 0.5 ng/mL. The “in vitro potency, times more potent than isopropyloctopamine” value in series [5] is 3.5 times.

Regarding `CN(C)CCc1ccc(O)cc1` [Hordenine, hordenine], the “ADRα1D ED50” value in series [1] is recorded as 11.5 mg/kg bw. In addition, in series [2], the “ADRα1B ED50” value was 1.90 mg/kg bw. The “Predicted intrinsic hepatic metabolic clearance CLmet” value in series [3] is 27.0 L/h. In addition, in series [3] (setting [8]), the k el at 1 µM was 7.33e-05 s⁻¹. The microsomal CLint at 1 µM in series [3] (setting [9]) worked out at 2.53 µL/min/mg; in series [3] (setting [10]), 2.2 µL/min/mg.

As to `CC(C)NCC(O)c1ccc(O)cc1` (stereo not shown) [Isopropyloctopamine, isopropyloctopamine], the “ADRα1D ED50” value in series [1] was “– (compounds with a dash (-) did not activate the receptors in vitro at concentrations ≤ 300 µM)”. In addition, the “ADRα1B ED50” value in series [2] is “– (compounds with a dash (-) did not activate the receptors in vitro at concentrations ≤ 300 µM)”. Besides, in series [3], the “Predicted intrinsic hepatic metabolic clearance CLmet” value was 27.3 L/h and the k el at 1 µM is 7.17e-05 s⁻¹. In addition, in series [3] (setting [9]), the microsomal CLint at 1 µM was 2.56 µL/min/mg. Also, the microsomal CLint at 1 µM in series [3] (setting [10]) was 2.15 µL/min/mg.

Turning to `CNC(C)C(O)c1ccc(O)cc1` (stereo not shown) [Methylsynephrine], in series [1], the “ADRα1D ED50” value is reported as “– (compounds with a dash (-) did not activate the receptors in vitro at concentrations ≤ 300 µM)”. Also, the “ADRα1B ED50” value in series [2] is recorded as “– (compounds with a dash (-) did not activate the receptors in vitro at concentrations ≤ 300 µM)”. Moreover, in series [3], the “Predicted intrinsic hepatic metabolic clearance CLmet” value is 19.7 L/h. The k el at 1 µM in series [3] (setting [8]) was 4.97e-05 s⁻¹. The results for the microsomal CLint at 1 µM in series [3] (setting [9]) and in series [3] (setting [10]) were 1.84 µL/min/mg and 1.49 µL/min/mg, respectively.

Consider `NCCc1ccccc1` [Phenethylamine, phenethylamine], for which the “ADRα1D ED50” value in series [1] is reported as “– (compounds with a dash (-) did not activate the receptors in vitro at concentrations ≤ 300 µM)”. Further, the “ADRα1B ED50” value in series [2] is listed as “– (compounds with a dash (-) did not activate the receptors in vitro at concentrations ≤ 300 µM)”. Further, in series [3], the “Predicted intrinsic hepatic metabolic clearance CLmet” value was 2598 L/h and the “metabolism in incubations without co-factor mix” value is “metabolized in incubations without co-factor mix”. Moreover, in series [3] (setting [8]), the k el at 1 µM was 0.000402 s⁻¹. Besides, the microsomal CLint at 1 µM in series [3] (setting [9]) was 243 µL/min/mg. For the same compound, the microsomal CLint at 1 µM in series [3] (setting [10]) was 241 µL/min/mg.

As to `NCCc1ccc(O)cc1` [Tyramine, tyramine], the “ADRα1D ED50” value in series [1] is on record as “– (compounds with a dash (-) did not activate the receptors in vitro at concentrations ≤ 300 µM)”. In addition, the “ADRα1B ED50” value in series [2] was “– (compounds with a dash (-) did not activate the receptors in vitro at concentrations ≤ 300 µM)”. Further, in series [3], the “Predicted intrinsic hepatic metabolic clearance CLmet” value was 841 L/h and the “metabolism in incubations without co-factor mix” value is listed as “metabolized in incubations without co-factor mix”. Further, the k el at 1 µM in series [3] (setting [8]) is 0.000322 s⁻¹. The microsomal CLint at 1 µM in series [3] (setting [9]) stood at 78.8 µL/min/mg. The microsomal CLint at 1 µM in series [3] (setting [10]) was 77.2 µL/min/mg. For the same compound, in series [6], the “over-prediction of the Cmax plasma compared to the observed average” value is 3.78 fold. In addition, the “metabolic clearance observed in humans” value in series [7] was 792 L/h.

`CNCC(O)c1ccc(O)cc1` (stereo not shown) [p-Synephrine, Synephrine]: the “ADRα1D ED50” value in series [1] is 2.35 mg/kg bw. For the same compound, the “ADRα1B ED50” value in series [2] is given as 0.914 mg/kg bw. In addition, in series [3], the “Predicted intrinsic hepatic metabolic clearance CLmet” value is 140 L/h and the “metabolism in incubations without co-factor mix” value is recorded as “metabolized in incubations without co-factor mix”. For the same compound, the k el at 1 µM in series [3] (setting [8]) is 0.000198 s⁻¹. The microsomal CLint at 1 µM in series [3] (setting [9]) stood at 13.1 µL/min/mg. For the same compound, in series [3] (setting [10]), the microsomal CLint at 1 µM stood at 11.9 µL/min/mg.

`CC(CN)c1ccccc1` (stereo not drawn) [β-Methylphenethylamine, β-methylphenethylamine]: in series [1], the “ADRα1D ED50” value is “– (compounds with a dash (-) did not activate the receptors in vitro at concentrations ≤ 300 µM)”. For the same compound, the “ADRα1B ED50” value in series [2] is “– (compounds with a dash (-) did not activate the receptors in vitro at concentrations ≤ 300 µM)”. Moreover, in series [3], the “Predicted intrinsic hepatic metabolic clearance CLmet” value is 139 L/h and the “metabolism in incubations without co-factor mix” value is “metabolized in incubations without co-factor mix”. Besides, in series [3] (setting [8]), the k el at 1 µM is 0.000403 s⁻¹. In series [3] (setting [9]), the microsomal CLint at 1 µM amounted to 13 µL/min/mg. Moreover, in series [3] (setting [10]), the microsomal CLint at 1 µM came out at 12.1 µL/min/mg.
